Assay results as given in PMC12516390 (ACS Medicinal Chemistry Letters, 2025).
Read-outs that look alike come from different tables or passages of the source.

Tests used:
recombinant M^Pro = recombinant M^Pro (Severe acute respiratory syndrome coronavirus 2, UniProt P0DTD1); experiment: SARS-CoV-2 Mpro screening and IC50 determination (QS1 fluorogenic substrate, Drag assay); format: biochemical; settings: for inhibition at 10 µM: read-out: M^Pro (%inh)@10μM
PL^Pro = PL^Pro (Severe acute respiratory syndrome coronavirus 2, UniProt P0DTD1); experiment: SARS-CoV-2 PLpro screening (Ac-LRGG-ACC substrate); format: biochemical; settings: read-out: PL^Pro (%inh)@10μM
[1] = recombinant M^Pro, 20 μM QS1 (Ac-Abu-Tle-Leu-Gln-ACC) substrate, Table 1, read-out: M^Pro IC50
[2] = recombinant M^Pro, 20 μM QS1 substrate, Table 5, read-out: IC50 (μM) M^Pro
[3] = recombinant M^Pro, 20 μM QS1 substrate, Table 3, read-out: M^Pro IC50

SMILES	inhibition at 10 µM (recombinant M^Pro) [%]	IC50 (recombinant M^Pro; [1]) [µM]	inhibition at 10 µM (PL^Pro) [%]	IC50 (recombinant M^Pro; [2]) [µM]	IC50 (recombinant M^Pro; [3]) [µM]	further results
COc1ccccc1-c1ccc(C(=O)N[C@@H](CC(C)C)C(=O)N[C@H](C#N)C[C@@H]2CCNC2=O)cc1 [6g]	> 95	1.09	< 50			IC50 (recombinant M^Pro; read-out: M^Pro IC50): > 1 µM
COc1cccc(-c2ccc(C(=O)N3C[C@H]4[C@@H]([C@H]3C(=O)N[C@H](C#N)C[C@@H]3CCNC3=O)C4(C)C)cc2)c1 [22a]				1.02		
COc1cccc(-c2ccc(C(=O)N3C[C@@H]4CCC[C@@H]4[C@H]3C(=O)N[C@H](C#N)C[C@@H]3CCNC3=O)c(F)c2)c1 [22i]				1.91		
CC(C)C[C@@H](NC(=O)c1ccc(-c2ccc(F)cc2)cc1)C(=O)N[C@H](C#N)C[C@@H]1CCNC1=O [12b]	> 95	4.03	< 50			
CC(C)C[C@H](NC(=O)c1ccc(-c2ccc(Cl)cc2)cc1)C(=O)N[C@H](C#N)C[C@@H]1CCNC1=O [6a]	> 95	0.724	< 50			activity / biochemical potency against M^Pro (in words) (recombinant M^Pro): submicromolar
COc1ccc(-c2ccc(C(=O)N[C@@H](CC(C)C)C(=O)N[C@H](C#N)C[C@@H]3CCNC3=O)c(F)c2F)cc1 [18e]					0.155	
CCC[C@H](NC(=O)c1ccc(-c2cccc(OC)c2)cc1)C(=O)N[C@H](C#N)C[C@@H]1CCNC1=O [12e]	> 95	4.86	< 50			
CC(C)C[C@H](NC(=O)c1ccc(-c2cncc(Cl)c2)cc1)C(=O)N[C@H](C#N)C[C@@H]1CCNC1=O [6h]	> 95	1.3	< 50			IC50 (recombinant M^Pro; read-out: M^Pro IC50): > 1 µM
COc1ccc(-c2ccc(C(=O)N3C[C@H]4[C@@H]([C@H]3C(=O)N[C@H](C#N)C[C@@H]3CCNC3=O)C4(C)C)c(F)c2)cc1 [22d]				0.394		
COc1ccc(-c2cc(F)c(C(=O)N[C@@H](CC(C)C)C(=O)N[C@H](C#N)C[C@@H]3CCNC3=O)cc2F)cc1 [18g]					0.229	
N#C[C@H](C[C@@H]1CCNC1=O)NC(=O)[C@H](CC1CCCCC1)NC(=O)c1ccc(-c2cncc(Cl)c2)cc1 [12o]	< 95	2.4	< 50			
COc1cccc(-c2cc(F)c(C(=O)N[C@@H](CC(C)C)C(=O)N[C@H](C#N)C[C@@H]3CCNC3=O)cc2F)c1 [18f]					0.245	
CCOc1ccc(-c2ccc(C(=O)N[C@@H](CC(C)C)C(=O)N[C@H](C#N)C[C@@H]3CCNC3=O)cc2)cc1F [6m]	> 95	0.731	< 50			
COc1ccc(-c2ccc(C(=O)N3C[C@@H]4CCC[C@@H]4[C@H]3C(=O)N[C@H](C#N)C[C@@H]3CCNC3=O)c(F)c2)cc1 [22j]				1.27		
COc1ccc(-c2ccc(C(=O)N[C@@H](CC(C)C)C(=O)N[C@H](C#N)C[C@@H]3CCNC3=O)cc2F)cc1 [18i]					0.661	
COc1cccc(-c2ccc(C(=O)N[C@@H](CC(C)C)C(=O)N[C@H](C#N)C[C@@H]3CCNC3=O)c(F)c2F)c1 [18d]					0.171	
COc1ccc(-c2ccc(C(=O)N3C[C@H]4[C@@H]([C@H]3C(=O)N[C@H](C#N)C[C@@H]3CCNC3=O)C4(C)C)cc2)cc1 [22b]				1.13		
COc1cccc(-c2ccc(C(=O)N[C@@H](CC(C)C)C(=O)N[C@H](C#N)C[C@@H]3CCNC3=O)c(C)c2)c1 [18j]					0.163	
COc1cccc(-c2ccc(C(=O)N3C[C@@H]4CCC[C@@H]4[C@H]3C(=O)N[C@H](C#N)C[C@@H]3CCNC3=O)cc2)c1 [22g]				2.67		
COc1cccc(-c2ccc(C(=O)N3C[C@H]4[C@@H]([C@H]3C(=O)N[C@H](C#N)C[C@@H]3CCNC3=O)C4(C)C)c(F)c2)c1 [22c]				0.465		
COc1cccc(-c2ccc(C(=O)N[C@@H](CC(C)C)C(=O)N[C@H](C#N)C[C@@H]3CCNC3=O)c(C(F)(F)F)c2)c1 [18l]					0.115	
COc1cccc(-c2ccc(C(=O)N[C@@H](CC(C)C)C(=O)N[C@H](C#N)C[C@@H]3CCNC3=O)cc2F)c1 [18h]					0.694	
COc1ccc(-c2ccc(C(=O)N3C[C@@H]4CCC[C@@H]4[C@H]3C(=O)N[C@H](C#N)C[C@@H]3CCNC3=O)cc2)cc1 [22h]				2.99		
